Results published in ChEMBL document CHEMBL3217601, “Optimized glucuronidation of dual pharmacology -2 agonists/M3 antagonists for the treatment of COPD” (Medchemcomm, 2011).

How the values were obtained:
[1] = Intrinsic clearance in human liver microsomes assessed as glucuronidation in absence of NADPH and presence of microsomal activator Brij58 and UDPGA
[2] = molecular target: Beta-1 adrenergic receptor (Homo sapiens, UniProt P08588); assay: Agonist activity at beta-1 adrenoceptor (unknown origin)
[3] = Drug metabolism of the compound in human liver microsomes assessed as glucuronidation in absence of NADPH and presence of microsomal activator Brij58 and UDPGA
[4] = molecular target: Muscarinic acetylcholine receptor M3 (Homo sapiens, UniProt P20309); assay: Displacement of [3H]-N-methyl scopolamine from human cloned muscarinic M3 receptor
[5] = molecular target: Beta-2 adrenergic receptor (Homo sapiens, UniProt P07550); assay: Agonist activity at human beta-2 adrenoceptor expressed in CHO cells assessed as stimulation of intracellular cAMP production; format: functional, cell-based
Sequence of Beta-2 adrenergic receptor (P07550 whole entry): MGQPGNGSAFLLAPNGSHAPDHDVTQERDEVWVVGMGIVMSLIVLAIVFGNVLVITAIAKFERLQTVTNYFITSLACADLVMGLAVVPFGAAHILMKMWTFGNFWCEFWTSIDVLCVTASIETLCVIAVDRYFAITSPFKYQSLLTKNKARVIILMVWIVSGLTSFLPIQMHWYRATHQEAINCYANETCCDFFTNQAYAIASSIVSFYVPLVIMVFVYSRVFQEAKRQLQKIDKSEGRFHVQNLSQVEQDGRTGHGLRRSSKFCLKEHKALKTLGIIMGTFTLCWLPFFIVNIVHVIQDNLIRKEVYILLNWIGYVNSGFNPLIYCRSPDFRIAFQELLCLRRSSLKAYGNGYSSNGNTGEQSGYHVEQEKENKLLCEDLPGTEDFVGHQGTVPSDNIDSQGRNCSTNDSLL

Sequence of Muscarinic acetylcholine receptor M3 (P20309 whole entry): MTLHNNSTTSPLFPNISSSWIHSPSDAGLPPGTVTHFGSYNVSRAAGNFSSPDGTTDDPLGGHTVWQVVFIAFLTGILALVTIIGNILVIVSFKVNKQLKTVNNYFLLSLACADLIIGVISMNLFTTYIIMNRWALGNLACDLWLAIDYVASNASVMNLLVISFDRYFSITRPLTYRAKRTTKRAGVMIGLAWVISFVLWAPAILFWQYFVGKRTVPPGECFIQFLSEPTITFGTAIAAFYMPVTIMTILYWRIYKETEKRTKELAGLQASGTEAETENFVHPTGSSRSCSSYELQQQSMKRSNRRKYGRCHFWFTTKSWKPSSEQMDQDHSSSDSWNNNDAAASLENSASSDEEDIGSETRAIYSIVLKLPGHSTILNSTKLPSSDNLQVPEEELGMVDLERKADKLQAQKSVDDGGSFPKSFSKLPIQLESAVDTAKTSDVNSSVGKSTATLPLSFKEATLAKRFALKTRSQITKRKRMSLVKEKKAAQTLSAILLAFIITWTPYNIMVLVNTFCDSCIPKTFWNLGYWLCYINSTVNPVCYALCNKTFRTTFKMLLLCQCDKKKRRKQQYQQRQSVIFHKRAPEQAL
Sequence of Beta-1 adrenergic receptor (P08588 whole entry): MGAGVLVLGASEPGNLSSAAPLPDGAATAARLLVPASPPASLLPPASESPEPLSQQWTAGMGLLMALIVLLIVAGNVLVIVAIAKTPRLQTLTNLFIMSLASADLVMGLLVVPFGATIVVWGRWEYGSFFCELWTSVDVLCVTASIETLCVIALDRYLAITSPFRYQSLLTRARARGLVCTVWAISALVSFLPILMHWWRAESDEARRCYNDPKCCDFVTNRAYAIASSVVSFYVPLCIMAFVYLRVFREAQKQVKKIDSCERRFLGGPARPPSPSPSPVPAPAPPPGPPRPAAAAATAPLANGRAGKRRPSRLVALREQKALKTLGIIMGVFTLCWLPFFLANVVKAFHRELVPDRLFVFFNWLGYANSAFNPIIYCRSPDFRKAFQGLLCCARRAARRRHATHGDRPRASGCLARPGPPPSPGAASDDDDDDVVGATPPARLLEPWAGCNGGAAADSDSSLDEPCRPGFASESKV

| SMILES | microsomal CLint [1] | EC50 [2] | microsomal CLint [3] | Ki [4] | EC50 [5] |
| --- | --- | --- | --- | --- | --- |
| Cc1ccc(-c2ccc(O)c(Cl)c2)c(NC(=O)OC2CCN(CCCCCCCCCNC[C@H](O)c3ccc(O)c(NS(C)(=O)=O)c3)CC2)c1 | 29 µL/min/mg | > 10000 nM | 6 µL/min/mg | 2 nM | 14 nM |
| CS(=O)(=O)Nc1cc([C@@H](O)CNCCc2ccc(OCCCN3CCC(OC(=O)Nc4ccccc4-c4ccc(O)c(Cl)c4)CC3)cc2)ccc1O | 33 µL/min/mg | > 10000 nM | 29 µL/min/mg | 3.1 nM | 13 nM |
| CS(=O)(=O)Nc1cc([C@@H](O)CNCCc2ccc(OCCN3CCC(OC(=O)Nc4ccccc4-c4ccc(O)c(Cl)c4)CC3)cc2)ccc1O | 74 µL/min/mg | > 10000 nM | 48 µL/min/mg | 36 nM |  |
| CS(=O)(=O)Nc1cc([C@@H](O)CNCCCCCCCCCN2C[C@H]3C[C@@]3(COC(=O)Nc3ccccc3-c3ccc(O)c(Cl)c3)C2)ccc1O | 49 µL/min/mg | > 10000 nM | 28 µL/min/mg | 4.3 nM | 17 nM |
| O=C(Nc1ccccc1-c1ccccc1)OC1CCN(CCCCCCCCCNC[C@H](O)c2ccc(O)c3[nH]c(=O)ccc23)CC1 |  | > 10000 nM |  |  |  |
| CS(=O)(=O)Nc1cc([C@@H](O)CNCCCCCCCCCN2C3CCC2CC(OC(=O)Nc2ccccc2-c2ccc(O)c(Cl)c2)C3)ccc1O (stereo partly specified) | 8 µL/min/mg | > 10000 nM | 7.8 µL/min/mg | 8.9 nM | 23 nM |
| CS(=O)(=O)Nc1cc([C@@H](O)CNCCCCCCCCCN2CC[C@@H](OC(=O)Nc3ccccc3-c3ccc(O)c(Cl)c3)C2)ccc1O | 39 µL/min/mg | > 10000 nM | 51 µL/min/mg | 9.2 nM | 24 nM |

The remaining lines, values ahead:

| microsomal CLint [1] | EC50 [2] | microsomal CLint [3] | Ki [4] | EC50 [5] | SMILES |
| --- | --- | --- | --- | --- | --- |
| 8.8 µL/min/mg | > 10000 nM | < 2 µL/min/mg | 26 nM |  | CS(=O)(=O)Nc1cc([C@@H](O)CNCCCCCCCCCN2CCC(OC(=O)Nc3ccccc3-c3ccc(F)cc3O)CC2)ccc1O |
| 28 µL/min/mg | > 10000 nM | 4 µL/min/mg | 76 nM | 65 nM | CS(=O)(=O)Nc1cc([C@@H](O)CNCCCCCCCCCN2CCC(OC(=O)Nc3ccccc3-c3cc(O)cc(F)c3)CC2)ccc1O |
| 15 µL/min/mg | > 10000 nM | 6 µL/min/mg | 4.4 nM | 57 nM | CS(=O)(=O)Nc1cc([C@@H](O)CNCCCCCCCCCN2CCC(OC(=O)Nc3cc(F)ccc3-c3ccc(O)c(Cl)c3)CC2)ccc1O |
| 33 µL/min/mg | > 10000 nM | 3.7 µL/min/mg | > 73 nM |  | CS(=O)(=O)Nc1cc([C@@H](O)CNCCCCCCCCCN2CCC(OC(=O)Nc3ccccc3-c3cc(C#N)ccc3O)CC2)ccc1O |
|  | > 10000 nM | < 2 µL/min/mg | 10 nM |  | CS(=O)(=O)Nc1cc([C@@H](O)CNCCCCCCCCCN2CCC(OC(=O)Nc3ccccc3-c3cccc(F)c3O)CC2)ccc1O |
| 34 µL/min/mg | > 10000 nM | 22 µL/min/mg | 2 nM | 21 nM | CS(=O)(=O)Nc1cc([C@@H](O)CNCCCCCCCCCCN2CCC(OC(=O)Nc3ccccc3-c3ccc(O)c(Cl)c3)CC2)ccc1O |
| 13 µL/min/mg | > 10000 nM | 90 µL/min/mg | 8.3 nM | 22 nM | CS(=O)(=O)Nc1cc([C@@H](O)CNCCCCCCCCCN2CCC(OC(=O)Nc3ccccc3-c3cc(F)c(O)cc3F)CC2)ccc1O |
